Converted amounts (≈) assume the structure as drawn. Read-outs that look alike come from different tables or passages of the source.
Columns and labels:
[1] = Evaluation of the acoustic cavitation promoting effect (subharmonic signal upon ultrasound irradiation); conditions: 0.5 MHz and 1 MHz; for subharmonic generation: 0.1 mmol/L in PBS (pH 7.4), acoustic intensity 5 W/cm^2, 1 minute
Protocol: A 0.1 mmol/L solution of RB—Cn in PBS (pH 7.4, containing 1% DMF) was sealed in a polyethylene bag (30×25 mm, 0.03 mm thick) and irradiated with ultrasonic waves of 0.5 MHz and 1 MHZ simultaneously under conditions of an acoustic intensity of 5 or 10 W/cm^2 and an exposure time of 1 minute, using an experimental apparatus having the constitution shown in FIG. 4.
In FIG. 4, 10 indicates degassed water, 11—a water tank, 12—a polyethylene bag, 13—a sample solution, 14-1 and 14-2 each—a holdfast, 15—a hanger, 16—a hydrophone, 17—a supporter, 18—an ultrasound transducer, 19—a supporter, 20—a signal processor, 21—an amplifier, 22—a spectrum analyzer, 23—an amplifier, and 24—a wave generator.
The acoustic signals at the subharmonic (250 kHz) characteristic to acoustic cavitation were measured at one-second intervals using a focusing type hydrophone, the root mean square of the signal amplitudes during the irradiation period was calculated and this was used as an indication of acoustic cavitation.
For comparison, a 0.1 mmol/L solution of RB in PBS (pH 7.4) was also measured for subharmonic signals. […] For each of RB and the RB—Cn species containing 3, 6 or 18 carbon atoms in the alkyl group (RB—C3, RB—C6 and RB—C18), the relation between acoustic intensity and subharmonic intensity is shown in FIG. 6.
Using a 0.1 mmol/L solution of RB—COOH—Cn in PBS (pH 7.4), the acoustic cavitation promoting effect was evaluated in the same manner as in Test Example 5.
Using a 0.1 mmol/L solution of xanthene dye sensitizer—COOH—Cn in PBS (pH 7.4), the acoustic cavitation promoting effect was evaluated in the same manner as in Test Example 5.

[2] = test system: murine experimental tumor Colone 26; assay: Evaluation of the accumulation of RB—COOH—Cn in tumor tissues (fluorescence intensity ratio); assay type: in vivo; conditions: tumor bearing CDF1 mice, intravenous, 10 mg/kg, until 120 minutes after administration, FIG. 3
Protocol: (§1) Tumor bearing mice were intravenously administered with RB or RB—Cn and, after the lapse of a predetermined period, tumor tissues were excised. The fluorescence spectrum of the agent extracted from the tumor tissues was measured and the concentration of the agent was estimated from the fluorescence intensity to thereby evaluate the accumulability in tumor tissues. Mice subjected to the test were 5-week male CDF1 mice one to two weeks after subcutaneous implantation of small pieces (e.g. 1 mm^3 pieces) of the murine experimental tumor Colone 26. The dose of the agent was 10 mg/kg and methanol or chloroform was used for the extraction.
Tumor bearing mice were intravenously administered with RB or RB—COOH—Cn and, after the lapse of a predetermined period, tumor tissues were excised. The fluorescence intensity of the tumor tissues was measured and the accumulability in tumor tissues was evaluated based on the ratio of that intensity and the fluorescence intensity of an internal standard (fluorescence intensity ratio). The mice used in the test and the dose of the agent were the same as in Test Example 3. As an example of the results, the relation between the time from agent administration to mice to tumor tissue excision and the fluorescence intensity ratio is shown in FIG. 3 for each of RB and RB—COOH—Cn species containing 2, 3, 7 or 15 carbon atoms in the alkyl group (RB—COOH—C2, RB—COOH—C3, RB—COOH—C7 and RB—COOH—C15).

[3] = Evaluation of the photosensitivity (photo-oxidation reaction of iodide); conditions: light of 365 nm, DMF solution, FIG. 9 / FIG. 10
Protocol: The photo-oxidation reaction of iodide as represented by Equation 4 was carried out in the presence of RB—Cn and the photosensitivity of the compound was evaluated.
A mixed solution composed of 2 mL of a 0.1 mol/L solution of potassium iodide in DMF and 1 mL of a 1 mmol/L solution of RB—Cn in DMF was placed in a glass dish (48 mm in diameter) and irradiated with light of 365 nm for a predetermined period. The absorbance, at 350 nm, of the sample was measured before and after exposure. 350 nm is the absorption maximum wavelength of I3^—. Based on the absorbance (A), the concentration of I3^— was calculated using Equation 5.
The procedure of Test Example 8 was followed in the presence of RB—COOH—Cn.

[4] = test system: murine experimental tumor Colone 26; assay: Evaluation of the accumulation of RB—Cn in tumor tissues (agent extracted, fluorescence); assay type: in vivo; conditions: tumor bearing CDF1 mice, intravenous, 10 mg/kg, until 120 minutes after administration, FIG. 2
Protocol: as §1

[5] = Preparation of RB solution and RB lipophilic derivative solutions for administration in vivo; assay type: physicochemical; conditions: target 10 mg/mL (RB—Cn 1 mg/mL), final pH about 7.4
Protocol: A solution each of RB (Formula 9), RB—Cn—COOH (Formula 11) and RB—COOH—Cn (Formula 12) with a concentration of 10 mg/mL and a solution of RB—Cn (Formula 10) with a concentration of 1 mg/mL were prepared.
RB: 50 mg of RB was dissolved in PBS (pH 7.4) and the whole volume was made 5 mL.
RB—Cn: 4 mg of RB—Cn was dissolved in 0.4 mL of DMSO. Then, 0.4 mL of ethanol, 0.3 mL of 0.1 N NaOH aqueous solution and 1.0 mL of PBS (pH 7.4) were added and, further, 0.1 N hydrochloric acid was added to adjust the pH to about 7.4 and the whole volume was made 4 mL by further adding PBS (pH 7.4). The DMSO accounted for 10% of the whole solution.
RB—C7—COOH: 30 mg of RB—C7—COOH was dissolved in 1.2 mL of 0.1 N NaOH aqueous solution, 0.1 N hydrochloric acid was added to adjust the pH to about 7.4 and the whole volume was made 3 mL by further adding PBS (pH 7.4).
RB—COOH—Cn: n=2 to 10:30 mg of each RB—COOH—Cn was dissolved in 1.2 mL of 0.1 N NaOH aqueous solution, 0.1 N hydrochloric acid was added to adjust the pH to about 7.4 and the whole volume was made 3 mL by further adding PBS (pH 7.4). […].
n=11 to 20:30 mg of each RB—COOH—Cn was dissolved in 0.6 mL of DMF. Then, 1.2 mL of 0.1 N NaOH aqueous solution was added, 0.1 N hydrochloric acid was added to adjust the pH to about 7.4 and the whole volume was made 3 mL by further adding PBS (pH 7.4).

[6] = Solubility measurement of RB and lipophilic derivatives of RB in PBS and 1-octanol; assay type: physicochemical; conditions: for solubility: thermodynamic from solid
Protocol: The sonochemical sensitizers of the invention, namely RB—COOH—Cn species (n being the number of carbon atoms in the straight alkyl group) were examined for their solubility in an aqueous solution and in an organic solvent. The aqueous solution used was a phosphate buffer solution (hereinafter, PBS) with a pH of 7.4 and the organic solvent used was 1-octanol.
First, saturated solutions of each RB—COOH—Cn in PBS and in 1-octanol were prepared at 25° C. and each solution was measured for its ultraviolet-visible absorption spectrum. Based on the molar absorptivity determined beforehand by measuring the ultraviolet-visible absorption spectrum of a solution having a known concentration, the agent concentration in the saturated solution was estimated.
For comparison, the starting material RB and two kinds of RB derivative, for which an attempt was made to increase the lipophilicity by a method other than that of the invention, namely rose bengal alkyl esters (hereinafter, RB—Cn, n being the number of carbon atoms in the alkyl group) and rose bengal fatty acid esters (hereinafter, RB—Cn—COOH, n being the number of carbon atoms in the methylene chain), were also subjected to solubility measurement.
In the solubility measurement, the respective derivatives having an equal number of carbon atoms in the alkyl group (n=7) were used.

[7] = Evaluation for contrast-enhancing effect (ultrasound imaging); assay type: in vivo; conditions: dog, 5 mL of 0.1 mmol/L solution intravenously, 5 MHz linear probe, mode B
Protocol: Using an ultrasound diagnostic system equipped with a linear probe with a central frequency of 5 MHz, 5 mL of the solution of RB—COOH—C7 obtained in Test Example 10 was intravenously administered to a dog (weighing 12 kg, 2 years old) while ultrasonically scanning the hepatic region of the dog with mode B. Immediately thereafter, 5 mL of physiological saline was administered. After administration, the hepatic artery and aorta were imaged and the imaging lasted for about 30 seconds.

[8] = Evaluation for bubble stability; assay type: physicochemical; conditions: 0.1 mmol/L in PBS (pH 7.4), 4 mL shaken 5 minutes
Protocol: Using a 0.1 mmol/L solution of RB—COOH—C7 in PBS (pH 7.4), the stability of bubbles was measured. 4 mL of the solution of RB—COOH—C7 was placed in a test tube having a length of […] and shaken on a shaker for 5 minutes and then the time until the disappearance of the bubbles was measured. PBS was used as a control.

Compound | subharmonic generation [1] | occurrence/concentration in tumor tissues (fluorescence intensity ratio to internal standard) [2] | relation between light exposure time and yield in photo-oxidation of iodide [3] | also measured
Rose bengal-α-carboxypentadecyl ester [RB—COOH—C15] | observed | higher than that of RB | almost proportional to the exposure time | 
erythrosine B sodium salt [EB] | observed |  |  | 
Rose bengal-α-carboxyethyl ester [RB—COOH—C2] |  | hardly observed | almost proportional to the exposure time | 
O=C([O-])c1c(Cl)c(Cl)c(Cl)c(Cl)c1-c1c2cc(Br)c(=O)c(Br)c-2oc2c(Br)c([O-])c(Br)cc12.[Na+].[Na+] [PB, phloxine B sodium salt] | observed |  |  | 
CCCCCCCCCCCCCCOC(=O)c1c(Cl)c(Cl)c(Cl)c(Cl)c1-c1c2cc(I)c(=O)c(I)c-2oc2c(I)c(O)c(I)cc12 [RB—Cl4] |  |  | almost proportional to the exposure time | 
CCCCCCOC(=O)c1c(Cl)c(Cl)c(Cl)c(Cl)c1-c1c2cc(I)c(=O)c(I)c-2oc2c(I)c(O)c(I)cc12 [RB—C6] | observed |  | almost proportional to the exposure time | agent concentration in tumor tissues [4]: higher as compared with RB
CCCCCCC(OC(=O)c1ccccc1-c1c2cc(I)c(=O)c(I)c-2oc2c(I)c(O)c(I)cc12)C(=O)O (stereo not drawn) [EB—COOH—C7, Erythrosine B-α-carboxyheptyl ester] | observed |  |  | 
O=C([O-])c1c(Cl)c(Cl)c(Cl)c(Cl)c1-c1c2cc(I)c(=O)c(I)c-2oc2c(I)c([O-])c(I)cc12.[Na+].[Na+] [RB, rose bengal sodium salt] | observed | hardly observed | almost proportional to the exposure time | dissolution behaviour when preparing solution for administration in vivo [5]: soluble as it was in PBS (pH 7.4); solubility ([6]; 1-octanol, organic solvent or mixture, saturated solution at 25° C., organic solvent, read-out: solubility in 1-octanol): < 0.1 mM; solubility ([6]; phosphate buffer solution (PBS), pH 7.4, aqueous buffer, saturated solution at 25° C., aqueous solution, read-out: solubility in PBS (pH 7.4)): 220 mM; solubility in 1-octanol ([6]; saturated solution at 25° C., organic solvent, sodium salt): <0.1 mM; agent concentration in tumor tissues [4]: hardly observed
O=C(O)CCCCCCCOC(=O)c1c(Cl)c(Cl)c(Cl)c(Cl)c1-c1c2cc(I)c(=O)c(I)c-2oc2c(I)c(O)c(I)cc12 [RB—COOH—C7, Rose bengal-α-carboxyheptyl ester] | observed | higher than that of RB | almost proportional to the exposure time | duration of imaging of hepatic artery and aorta [7]: about 30 seconds; solubility in the organic solvent relative to that of RB—C7—COOH ([6]; 1-octanol): about 5 times; solubility in 1-octanol (organic solvent) relative to the solubility of RB ([6]; 25° C.): 120 times; solubility in the aqueous solution relative to that of RB—C7 ([6]; PBS (pH 7.4), 25° C.): 83 times; solubility in PBS (pH 7.4) ([6]; saturated solution at 25° C., aqueous solution): 0.83 mmol/l; solubility in 1-octanol ([6]; saturated solution at 25° C., organic solvent): 12 mM (≈ 13.4 mg/mL); time bubbles remain after shaking [8]: about 120 seconds
CCCCCCCCCCCCCCCCCCOC(=O)c1c(Cl)c(Cl)c(Cl)c(Cl)c1-c1c2cc(I)c(=O)c(I)c-2oc2c(I)c(O)c(I)cc12 [RB—C18] |  |  | almost proportional to the exposure time | subharmonic formation ([1]; 0.1 mmol/L in PBS (pH 7.4, 1% DMF), ultrasound intensity 10 W/cm^2, 1 minute): no subharmonic formation was observed; agent concentration in tumor tissues [4]: higher as compared with RB
CCCCCCCCCCOC(=O)c1c(Cl)c(Cl)c(Cl)c(Cl)c1-c1c2cc(I)c(=O)c(I)c-2oc2c(I)c(O)c(I)cc12 [RB—CLO] |  |  | almost proportional to the exposure time | 
O=C(O)CCCCCCCOC(=O)c1c(Cl)c(Cl)c(Cl)c(Cl)c1-c1c2cc(Br)c(=O)c(Br)c-2oc2c(Br)c(O)c(Br)cc12 [PB—COOH—C7, Phloxine B-α-carboxyheptyl ester] | observed |  |  | 
